Results on 3 molecules are retold here after US10562848B2, “Inhibitors of TNF superfamily costimulatory interactions and methods for uses of the same” (UNIVERSITY OF MIAMI, priority 2015, dated 2020).

One assay addresses T1, OX40-OX40L (Homo sapiens, UniProt P23510+P43489).
T1 sequence (P43489 29-214 limits assumed): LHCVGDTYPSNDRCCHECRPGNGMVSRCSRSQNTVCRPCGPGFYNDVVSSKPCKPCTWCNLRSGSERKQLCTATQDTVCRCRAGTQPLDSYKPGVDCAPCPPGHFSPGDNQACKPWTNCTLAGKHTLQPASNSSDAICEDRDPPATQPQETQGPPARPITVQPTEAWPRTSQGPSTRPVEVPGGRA
T1 sequence (P23510 51-183 limits assumed): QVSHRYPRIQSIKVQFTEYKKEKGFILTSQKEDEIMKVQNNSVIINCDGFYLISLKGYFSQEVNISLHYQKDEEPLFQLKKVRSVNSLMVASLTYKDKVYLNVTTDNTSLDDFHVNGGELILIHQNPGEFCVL
Kind of assay: Cell-free ELISA-type OX40 binding inhibition assay. Particulars: Table 2. The method, then: Typical concentrations used were as follows—receptors: 0.3 μg/mL for CD40, TNF-R1, and RANK; 0.6 μg/mL for BAFF-R, OX40, and 4-1BB; and 2 μg/mL for EGF-R-ligands: 0.02 μg/mL for CD40L, TNFα, and RANKL; 0.2 μg/ml for BAFF, OX40L, 4-1BBL; and 0.3 μg/mL for EGF. Assays were done in duplicate or triplicate per plate and repeated at least three times; the averaged data were normalized and used for data fitting and analysis. Binding data were fitted using the standard log inhibitor versus response model in GraphPad Prism to determine the corresponding IC50 values.

The subject of assay [1] is CD40L-induced proliferation of human CD19+ B cells. Kind of assay: Inhibition of CD40L-induced human CD19+ B-cell proliferation (BrdU). Format: cell-based. The conditions noted are these: for pIC50: B-cell. As to the method: Because CD40 stimulation is an important signal for B cell proliferation, soluble CD40L can concentration-dependently induce the proliferation of human B cells.
Inhibition of cell proliferation was determined in freshly isolated human CD19^+ B cells using the colorimetric cell proliferation ELISA BrdU kit from Roche Applied Science (Indianapolis, Ind.). B cells were isolated from the PBMC as follows. Briefly, cells were washed three times with medium (RPMI 1640) and incubated for 20 min at 4° C. with 20 μL/10^7 cells of anti-CD19 Microbeads (Miltenyi Biotech, Bergisch Gladbach, Germany), according to the MiniMacs protocol (Miltenyi Biotech). Cells were then purified using magnetic columns. […] Cells were cultured in 96 wells plates (100 μL/well) at a cell density of 2×10^5 cells/mL in IMDM medium supplemented with 5% FBS, 100 U/mL penicillin, streptomycin 100 μg/mL, insulin-transferrin-selenium-G (all materials from Invitrogen, San Diego, Calif.) and 10 […] (R&D Systems). […] After 48 h, BrdU labeling solution was added as recommended, and cells were cultivated for another 48 h. Detection of incorporated BrdU was carried out following the instructions of the ELISA BrdU kit.
Data are average±SD for n=3 independent experiments with triplicates for each condition using a standard BrdU assay (Roche).

Assay [2] deals with CD40L-induced AID activation in human B cells. Kind of assay: Inhibition of CD40L-induced human B-cell function (AID activation, Ds-Red reporter, flow cytometry). In kind it is cell-based. The conditions noted are these: for pIC50: Homo sapiens, B-cell; for inhibition of CD40L-induced human B-cell function, AID activation (in words): human B cells, flow cytometry. The method, then:
Activities in blocking CD40L-induced effects were assessed in a human B cell functional assay that quantitates B-cell function by measuring AID activation via a downstream fluorescent marker using flow cytometry. Activation-induced cytidine deaminase (AID) is necessary for both class switch recombination (CSR) and somatic hypermutation (SHM) of Ig genes, which are important for the generation of high-affinity antibodies and robust humoral immune response (see Frasca et al., Methods Mol Biol 1343:107-114 (2015)). AID is encoded by the aicda gene that is exclusively expressed in B cells and is necessary for opening the DNA molecule in the switch (S) regions in order to allow CSR. […] To further validate the activity of the present compounds, an aicda-lentiviral construct containing the promoter and enhancer region of aicda fused to the reporter Ds-Red was generated and used to transfect human B cells isolated from healthy donors. In these cells, regulation of AID expression through CD40-CD40L signaling following incubation at different conditions were evaluated by Ds-Red level assessed via flow cytometry.
B cells were isolated using anti-CD19 Microbeads (Miltenyi Biotech) from PBMC collected from healthy donors, and they were purified using magnetic columns. These B cells were than transfected with an aicda-DsRed vector using a lentiviral protocol, 1.25×10^5 cells/mL of transfected B cells were stimulated with IL-4 at 0.2 μg/mL and CD40 ligand at 0.2 μg/mL in IMDM media with 10% FBS. In addition, various concentrations of candidate compounds diluted in the same media were added along with the described condition above. Also, 1 μg/ml of CpG was used as positive control for activation. After culture for 2 days at 37° C. and 5% CO2, B cells were collected, and AID activation level as represented by the level of Ds-Red expression was assessed by flow cytometry using BD LSRFortessa cell analyzer.
These are important results as they were obtained in freshly isolated human B cells, a model particularly relevant for autoimmune diseases, and they assess effects on function not just proliferation or viability.
On the technique in general: Flow cytometry measures light scatter and fluorescence of single cells or particles in a stream.

For assay [3], the system named is CD40L-induced NF-κB activation in CD40 sensor cells (HEK Blue). Description: Inhibition of CD40L-induced NF-κB activation in CD40 sensor cells (HEK-Blue). Format: cell-based, human. Particulars: for pIC50: Homo sapiens, CD40L 20 ng/mL, 18 h. From the text:
Activities of the compounds of the disclosure were confirmed in cell-based assays. As a first example, TNF-R1 and CD40 expressing sensor cells (HEK-Blue; InvivoGen, San Diego, Calif.) were used as described in the literature (see Song et al., Br J Pharmacol 171:4955-4969 (2014) and Cechin et al., Steroids 85:36-43 (2014)).
Cells were maintained in DMEM at 80% confluence for each experiment. Cells were trypsinized and re-suspended in the same medium with 1% FBS and seeded on 96-well microtiter plates at a density of 1×10^5 cells/well in the absence and presence of various concentrations of compounds diluted in the same media. For ligand mediated stimulation, final concentrations of recombinant human TNFα (2 ng/mL) and CD40L (20 ng/mL) were maintained in the wells for this purpose. After 18-hour incubation at 37° C., 20 μL supernatant of each well were taken and added to another 96-well microtiter plate containing 180 μL/well of QUANTI-Blue (InvivoGen, CA). The level of SEAP was determined after 30-minute incubation at 37° C. by reading at 625 nm using a spectrophotometer. […] Data are average±SD (normalized to CD40L-activated cells alone) for n=4 independent experiments with duplicates for each condition.

The mark [4] stands for this setting: 48 h, read-out: IC50, inhibition of CD40L-induced AID activation.

pIC50: −log10 of the molar value. Read-outs that look alike come from different tables or passages of the source.

By pIC50 is commonly meant −log10 of the IC50, conventionally taken in molar units. Consider `O=C(Nc1ccc(-c2ccc(C(=O)Nc3cccc4cccc(S(=O)(=O)O)c34)cc2)cc1)c1ccc([N+](=O)[O-])cc1` [Compound 21041, 8-[(4′-[4-nitrobenzamido]biphenyl-4-yl-carbonyl)amino]naphthalene-1-sulfonic acid], for which the pIC50 at OX40-OX40L was 3.22; in assay [2] (setting [4]), 4.88; in assay [2] (read-out: IC50 B Cell) it was 4.88; in assay [3], 5.00. In assay [1], the “inhibition of CD40L-induced human CD19+ B-cell proliferation (in words)” value is “concentration-dependent inhibition”. The “inhibition of CD40L-induced human B-cell function, AID activation (in words)” value (“inhibition … AID activation (in words)” for short) in assay [2] is “concentration-dependent inhibition”. Also, the “inhibition of CD40L-induced NF-κB activation (in words)” value in assay [3] is reported as “concentration-dependent inhibition”.

As to `COC(=O)c1ccc(C(=O)Nc2ccc(-c3ccc(C(=O)Nc4cccc5cccc(S(=O)(=O)O)c45)cc3)cc2)cc1` [Compound 21045], the negative logarithm of the IC50 (pIC50) on OX40-OX40L is 3.87; in assay [1] it was about 4.70; in assay [2] (setting [4]), 5.35; in assay [2] (read-out: IC50 B Cell), 5.35; in assay [3], 4.77. The “inhibition of CD40L-induced human CD19+ B-cell proliferation (in words)” value in assay [1] is given as “concentration-dependent inhibition”. The “inhibition … AID activation (in words)” value in assay [2] is “concentration-dependent inhibition”. Further, the “inhibition of CD40L-induced NF-κB activation (in words)” value in assay [3] is reported as “concentration-dependent inhibition”.

In the case of `O=C(Nc1ccc(-c2ccc(C(=O)Nc3ccc(C(=O)O)c4ccccc34)cc2)cc1)c1ccc([N+](=O)[O-])cc1` [Compound 25441], the pIC50 at OX40-OX40L was 5.57; in assay [1], about 4.70; in assay [2] (setting [4]) it was 4.80; in assay [2] (read-out: IC50 B Cell), 4.80; in assay [3] it was 5.05. The “inhibition of CD40L-induced human CD19+ B-cell proliferation (in words)” value in assay [1] was “concentration-dependent inhibition”. The “inhibition … AID activation (in words)” value in assay [2] is on record as “concentration-dependent inhibition”. Besides, in assay [3], the “inhibition of CD40L-induced NF-κB activation (in words)” value was “concentration-dependent inhibition”.
